Source: publication PMC10891904 (Pharmaceuticals, 2024)

Legend:
[1] = system: MCF7 (human breast cancer) cells; assay: Cell viability, MTT assay, MCF7; format: cell-based; details: 24 h
Method: (§1) HepG2, MCF7, and THLE2 cells were initially seeded at a density of 1 × 10^4 cells per well (100 μL per well) in DMEM medium. These cultures were then incubated at 37 °C in a 5% CO2 environment for 24 h to attain confluency levels ranging from 70% to 80%. […] The cells were allowed to culture for an additional 24 h.
(§2) After the incubation period, 10 μL of a 12 mM MTT stock solution (5 mg/mL MTT in sterile PBS) was introduced into each well. The plate was incubated for 4 h at 37 °C. Following this, the MTT solution was removed, and the purple formazan crystals that had developed at the well bottoms were dissolved by adding 100 μL of DMSO, allowing for a 20 min incubation. A negative control was included, which involved adding 10 μL of the MTT stock solution to 100 μL of medium alone.
(§3) The absorbance at 570 nm was subsequently measured using an ELISA reader (StatFax-2100, Awareness Technology, Inc., Palm City, FL, USA). […] Sigmoidal and dose-dependent curves were created to visualize the experimental results. These assays were conducted in triplicate and were repeated in three independent experiments.

[2] = molecular target: human recombinant COX-2 (Homo sapiens, UniProt P35354); assay: biochemical
human recombinant COX-2, sequence (P35354 18-604): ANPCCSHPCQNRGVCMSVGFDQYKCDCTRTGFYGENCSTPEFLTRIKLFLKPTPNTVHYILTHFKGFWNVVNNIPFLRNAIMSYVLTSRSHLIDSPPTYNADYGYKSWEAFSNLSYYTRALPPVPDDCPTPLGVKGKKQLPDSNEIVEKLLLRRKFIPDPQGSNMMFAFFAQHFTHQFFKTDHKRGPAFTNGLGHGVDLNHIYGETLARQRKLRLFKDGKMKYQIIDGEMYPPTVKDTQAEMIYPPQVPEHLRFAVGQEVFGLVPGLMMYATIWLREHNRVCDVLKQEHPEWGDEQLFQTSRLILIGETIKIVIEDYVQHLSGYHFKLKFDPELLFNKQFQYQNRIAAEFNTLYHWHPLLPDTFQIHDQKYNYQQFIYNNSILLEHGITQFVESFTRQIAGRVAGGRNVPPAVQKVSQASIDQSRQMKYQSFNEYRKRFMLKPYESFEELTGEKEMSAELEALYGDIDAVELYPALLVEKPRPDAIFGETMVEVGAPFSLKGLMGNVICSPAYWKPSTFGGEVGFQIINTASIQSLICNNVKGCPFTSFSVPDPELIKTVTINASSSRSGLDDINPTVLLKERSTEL

[3] = system: COX-1/COX-2/5-LOX; details: from experimental IC50
[4] = system: LPS-inflamed THLE2 cells; details: 1/10 of LC50, LPS 1 µg/mL, 24 h, G3 compared to G2
Method: (§4) The levels of malondialdehyde (MDA), superoxide dismutase (SOD), catalase (CAT), and glutathione peroxidase (GPX) were quantified using commercial kits, following established protocols. […] Subsequently, the cells were exposed to 1 µg/mL of LPS for 24 h.
(§5) After this incubation period, the cells were rinsed with PBS, harvested from the plates, and suspended in 1 mL of ice-cold PBS (0.1 M, containing 0.05 mM EDTA). The cell suspension was homogenized, and the resulting homogenate was then subjected to centrifugation at 4000× g for 10 min at 4 °C. The obtained supernatants were preserved at −80 °C until they were ready for analysis. The protein concentration in each of the supernatant samples was determined using the Bradford assay.

[5] = system: LPS-inflamed MCF7 cells; details: 1/10 of LC50, LPS 1 µg/mL, 24 h, G3 relative to G2
Method: as §4, §5

[6] = system: LPS-inflamed HepG2 cells; details: 1/10 of LC50, LPS 1 µg/mL, 24 h, G3 relative to G2
Method: as §4, §5

[7] = system: LPS-inflamed THLE2 cells; details: qPCR, β-actin reference, G3 vs G2
Method: (§6) HepG2, MCF7, and THLE2 cells were initially seeded in a culture medium comprising DMEM supplemented with 10% FCS and 1% penicillin/streptomycin solution. These cultures were maintained at 37 °C in a 5% CO2 environment. The culture medium was refreshed twice a week, and when the cell cultures reached approximately 80% confluence, they were subcultured after trypsinization (0.05%, w/v). To mitigate mitogenic effects, the cells were pre-cultured in serum-free DMEM for a minimum of 4 h.
(§7) To induce inflammation, 1 μg/mL of LPS was added to the cultures, as previously described. Subsequently, the cells were allowed to incubate for a duration of 24 h.
(§8) To isolate total RNA from HepG2, MCF7, and THLE2 cells, the RNeasy Mini kit was employed in accordance with the manufacturer’s instructions and established methods. Subsequently, cDNA was synthesized from […] of the total RNA using Quantiscript reverse transcriptase. The resulting cDNA served as a template for evaluating the relative expression of target gene mRNAs, with β-actin serving as an internal reference. To amplify the isolated cDNA, 2X Maxima SYBR Green/ROX qPCR Master Mix was used, following the manufacturer’s protocol, and specific gene primers designed for the purpose.
(§9) The reaction volume and qPCR thermal conditions were consistent with those previously described. Upon completion of the final cycle, the temperature was increased from 60 to 95 °C to generate a melt curve. The relative change in gene expression was presented as a fold change, determined using quantities at the critical threshold (Ct) and the 2^−∆∆Ct method (Table 5).

[8] = system: LPS-inflamed MCF7 cells; details: qPCR, β-actin reference, G3 vs G2
Method: as §6, §7, §8, §9

[9] = system: LPS-inflamed HepG2 cells; details: qPCR, β-actin reference, G3 vs G2
Method: as §6, §7, §8, §9

[10] = molecular target: T1, rabbit 5-LOX (Oryctolagus cuniculus, UniProt G1SNX0); assay: In vitro 5-LOX inhibition assay (enzyme kit); format: biochemical; details: mean of three values
T1 construct: purchased Cayman Chemical 560131
T1 sequence (G1SNX0 1-674): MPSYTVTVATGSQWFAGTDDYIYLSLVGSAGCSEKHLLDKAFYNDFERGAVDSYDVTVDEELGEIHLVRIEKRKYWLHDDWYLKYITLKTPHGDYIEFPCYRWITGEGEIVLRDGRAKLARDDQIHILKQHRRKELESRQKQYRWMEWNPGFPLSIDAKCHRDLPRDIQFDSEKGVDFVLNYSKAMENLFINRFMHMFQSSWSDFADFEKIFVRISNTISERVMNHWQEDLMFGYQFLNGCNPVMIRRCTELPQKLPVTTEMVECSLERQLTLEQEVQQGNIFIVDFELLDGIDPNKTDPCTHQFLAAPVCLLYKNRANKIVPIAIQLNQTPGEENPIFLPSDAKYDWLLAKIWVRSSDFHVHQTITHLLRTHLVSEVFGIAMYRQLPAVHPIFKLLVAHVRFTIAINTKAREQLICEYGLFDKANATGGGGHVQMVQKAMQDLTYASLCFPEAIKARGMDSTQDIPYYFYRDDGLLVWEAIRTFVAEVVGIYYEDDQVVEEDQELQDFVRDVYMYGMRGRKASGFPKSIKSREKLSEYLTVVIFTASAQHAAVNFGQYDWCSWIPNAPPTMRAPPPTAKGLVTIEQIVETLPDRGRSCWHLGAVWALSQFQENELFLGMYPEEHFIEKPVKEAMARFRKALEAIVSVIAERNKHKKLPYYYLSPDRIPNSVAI

[11] = system: THLE2 (healthy human liver) cells; assay: Cell viability, MTT assay, THLE2; format: cell-based
Method: as §1, §2, §3

[12] = molecular target: ovine COX-1 (Ovis aries, UniProt P05979); assay: biochemical
ovine COX-1, sequence (P05979 25-600): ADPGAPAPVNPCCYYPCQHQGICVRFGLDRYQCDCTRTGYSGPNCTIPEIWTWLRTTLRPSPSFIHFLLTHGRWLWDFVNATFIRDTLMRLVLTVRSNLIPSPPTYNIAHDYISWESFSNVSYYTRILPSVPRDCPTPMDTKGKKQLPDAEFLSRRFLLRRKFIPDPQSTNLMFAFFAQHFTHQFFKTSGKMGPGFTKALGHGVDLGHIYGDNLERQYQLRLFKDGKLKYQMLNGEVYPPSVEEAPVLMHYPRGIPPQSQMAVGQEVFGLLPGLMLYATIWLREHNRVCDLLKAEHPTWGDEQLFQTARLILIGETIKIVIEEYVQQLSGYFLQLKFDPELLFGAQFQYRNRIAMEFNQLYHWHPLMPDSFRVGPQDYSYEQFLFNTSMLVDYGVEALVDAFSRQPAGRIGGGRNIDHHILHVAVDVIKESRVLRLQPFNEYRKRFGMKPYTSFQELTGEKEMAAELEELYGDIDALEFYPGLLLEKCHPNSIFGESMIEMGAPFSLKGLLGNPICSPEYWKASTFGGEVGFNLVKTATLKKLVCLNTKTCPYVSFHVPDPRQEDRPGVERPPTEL

[13] = system: HepG2 (human liver cancer) cells; assay: Cell viability, MTT assay, HepG2; format: cell-based
Method: as §1, §2, §3

[14] = system: LPS-inflamed THLE2 cells; details: 1/10 of IC50, LPS 1 μg/mL, 24 h, G3 vs G2
Method: as §6, §7
(§10) Inflammatory marker levels, including TNFα, IL1b, COX-1, COX-2, and 5-LOX, were quantified following established procedures. In short, the cells were seeded at a density of 5 × 10^4 cells per well in flat-bottomed 96-well plates. […] The cells were then incubated at 37 °C for a period of 24 h.
(§11) After incubation, the culture medium was carefully collected into micro-centrifuge tubes and subjected to centrifugation at 1500 rpm for 10 min. The resulting supernatant was transferred to new micro-centrifuge tubes, and the levels of TNFα, IL1b, COX-1, COX-2, and 5-LOX were determined using an ELISA kit (TNFα, IL1b, COX-1, COX-2, and 5-LOX were determined using enzyme-linked immunoassay (ELISA) kits from Sigma Aldrich (Saint Louis, MO, USA), Abcam (Cambridge, UK), and Aviva Systems Biology (San Diego, CA, USA).

[15] = system: LPS-inflamed MCF7 cells; details: 1/10 of IC50, LPS 1 μg/mL, 24 h, G3 vs G2
Method: as §6, §7, §10, §11

[16] = system: LPS-inflamed HepG2 cells; details: 1/10 of IC50, LPS 1 μg/mL, 24 h
Method: as §6, §7, §10, §11

## Nc1ccc(S(=O)(=O)Nc2ncccn2)cc1 [Sulfadiazine]
[1]
  IC50: 216 ± 3.8 µM
[2]
  IC50: 5.27 µM
[3]
  experimental 5-LOX/COX-1 selectivity: 1
  experimental COX-2/COX-1 selectivity: 3.6
[4]
  CAT levels: significant elevation
  GPX levels: significant elevation
  MDA levels: substantial reduction
  SOD levels: significant elevation
[5]
  CAT levels: increased levels
  MDA levels: significant augmentation
[6]
  CAT levels: increased levels
  GPX levels: increased levels
  MDA levels: significant augmentation
[7]
  5-LOX gene expression: significantly blunted
  COX-1 gene expression: not significant
  COX-2 gene expression: significantly blunted
  IL1b gene expression: significantly blunted
  TNFα gene expression: significantly blunted
[8]
  5-LOX gene expression: significantly blunted
  COX-1 gene expression: significantly blunted
  COX-2 gene expression: significantly blunted
  IL1b gene expression: significantly blunted
  TNFα gene expression: significantly blunted
[9]
  5-LOX gene expression: significantly blunted
  COX-1 gene expression: significantly blunted
  COX-2 gene expression: significantly blunted
  IL1b gene expression: significantly blunted
  TNFα gene expression: significantly blunted
[10]
  IC50: 19.1 µM
[11]; Homo sapiens, THLE-2, 24 h
  IC50: 4160 ± 90.5 µM
[12]
  IC50: 18.4 µM
[13]; Homo sapiens, HepG2, 24 h
  IC50: 246 ± 4.1 µM
[14]
  5-LOX level: significantly reduced
  COX-2 level: significantly reduced
  IL1b level: significantly reduced
  TNFα level: significantly reduced
[15]
  COX-2 level: significantly reduced
  IL1b level: significantly reduced
  TNFα level: significantly reduced
[16]; G3 vs G2
  COX-2 level: significantly reduced
  IL1b level: significantly reduced
[16]; G3 vs untreated LPS-inflamed cells (G2)
  TNFα level: significantly reduced

## Cc1ccc(-c2cc(C(F)(F)F)nn2-c2ccc(S(N)(=O)=O)cc2)cc1 [Celecoxib]
[10]
  IC50: 16.7 µM

## N.N.[Cl][Pt][Cl] [Cisplatin]
[11]; 24 h
  IC50: 2140 ± 95.3 µM
[13]; 24 h
  IC50: 66.9 ± 1.8 µM
